# Test results from patent US10280170B2, “Substituted 4,5,6,7-tetrahydro-pyrazolo[1,5-a]pyrazine derivatives and 5,6,7,8-tetrahydro-4H-pyrazolo[1,5-a][1,4]diazepine derivatives as Ros1 inhibitors” (Janssen Pharmaceutica NV, priority 2014, dated 2019).
# Like-named read-outs stand apart in the source and are kept apart here.
# Columns and labels:
# [1] = tested on: Ros pY2274 in HCC78 cells; assay: pROS1 immunofluorescence assay in HCC78 cells; type: cell-based; conditions: Homo sapiens, read-out: HCC78-pRos1 pIC50 (converted)
# Procedure: pROS1 Immunofluorescence Assay in HCC78 Cells
# Approximately 20000 HCC78 non-small cell lung cancer cells in 180 μl of cell culture medium (RPMI-1640, 10% FBS, 2 mM L-Glutamine, 10 mM Hepes, 1 mM sodium pyruvate, 4.5 g/L glucose, 1.5 g/L sodium bicarbonate, 25 μg/ml Gentamycin) were seeded in each well of a 96-well polystyrene, poly-D-lysine coated plate and incubated at 37° C. and 5% CO2. After 24 hours, compounds were diluted in cell culture medium from which 20 μl was added to the wells containing cells and incubated for 4 hours at 37° C. and 5% CO2. The medium was removed and the cells were fixed by adding 100 μl of 5% formaldehyde in TBS (tris-buffered saline) (50 mM Tris.HCl, pH 7.4, 150 mM NaCl) and incubating for 15 minutes at room temperature. The formaldehyde was removed and replaced with methanol for 10 minutes at room temperature, after which the cells were washed 3 times with TBS containing 1% Triton X-100 and incubated in Odyssee (Li-Cor) blocking buffer for 1 hour at room temperature. The cells were then incubated with the primary rabbit antibody directed against Ros pY2274 (cst-3078) diluted 1/200 in blocking buffer for 24 hours at room temperature. The cells were washed three times with TBS containing 0.1% Triton X-100 and incubated with a secondary anti-rabbit antibody conjugated to the fluorescent dye Alexafluor 680 in blocking buffer for 1 hour at room temperature. The cells were washed three times with TBS containing 0.1% Triton X-100 and left to dry before measuring RFUs (Relative Fluorescence Units) at 700 nm using a fluorescence imager.
# The same experiment was performed using total Ros1 antibody (sc-6347) diluted 1/1000 instead of Ros1 pY2274 antibody and an anti-goat antibody conjugated to IRDye800cw as a secondary antibody. RFUs were measured at […]. The signals from total Ros1 detection were used to normalize the Ros1 pY2274 values.
# [2] = tested on: Ba/F3 cells containing Ros1 wild-type protein + IL-3; assay: Ba/F3-Ros1 cell proliferation counter-screen, wild-type protein in the presence of 10 ng/ml murine IL-3; type: cell-based; conditions: Mus musculus, BaF3, 24 h, read-out: BaF3-ROS1 + IL3 pIC50 (converted)
# How it was run: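 Ba/F3 cells expressing wild-type Ros1 were grown with 10 ng/ml murine IL-3 and test compound in RPMI-1640 with 10% FBS and 2 mM L-glutamine for 24 h at 37 °C, 5% CO2. Viability was then read as Alamar Blue (resazurin) fluorescence (ex 540/em 590 nm) after 4 h further incubation.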
# [3] = tested on: HCC78 non-small cell lung cancer cells; assay: HCC78 cell proliferation assay; type: cell-based; conditions: Homo sapiens, HCC78, 96 h, read-out: HCC-78 PROL pEC50 (converted)
# How it was run: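 HCC78 NSCLC cells (~1000/well) in RPMI-1640 with 10% FBS were treated 24 h after seeding and exposed to compound for 4 days at 37 °C. Viability was read by MTT, with absorbance at 538 nm after DMSO/glycine solubilization.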
# Ros1 enzyme = target: T1, Ros1 enzyme (Homo sapiens, UniProt P08922); assay: Ros1 enzymatic assay; type: biochemical; conditions: Ros1 enzymatic assay; read-out: ROS1 pIC50 (converted)
# T1 construct: 0.5 μg/ml Ros1 enzyme
# How it was run: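 Ros1 (0.5 μg/ml in enzyme mix) was combined with a substrate mix of biotinylated IRS-Tide (6 μg/ml) and 20 μM ATP spiked with 33P-ATP in 50 mM Tris-HCl pH7.5, 10 mM MgCl2, 1 mM EGTA, 0.01% Tween-20. Reaction ran 120 min at room temperature before EDTA stop.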
# [4] = target: T2, Ba/F3 cells containing Ros1 wild-type protein (Homo sapiens, UniProt P08922, cells depend on it, form not given); assay: Ba/F3-Ros1 cell proliferation assay, wild-type Ros1; type: cell-based, murine; conditions: without IL-3
# T2 construct: The background only speaks of 'a number of different unrelated proteins' and names SLC34A2-ROS1 for HCC78 cells
# How it was run: (§1)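 Ba/F3 cells expressing wild-type, L2026M or G2032R Ros1, 20000 cells/well in phenol red-free RPMI-1640 with 10% FBS, 2 mM L-glutamine, exposed to compound for 24 h at 37 °C, 5% CO2. Viability read by Alamar Blue (resazurin) fluorescence, ex 540/em 590 nm, after 4 h further incubation.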
# [5] = target: Ba/F3 cells containing Ros1 with a mutation at the gatekeeper residue (L2026M) (Homo sapiens, UniProt P08922, L2026M, cells depend on it, form not given); assay: Ba/F3-Ros1 cell proliferation assay, L2026M gatekeeper mutant; type: cell-based, murine; conditions: without IL-3
# How it was run: as §1
# [6] = HCC78 cells, 4 hours, Ros pY2274 normalized to total Ros1
# [7] = counter-screen, wild-type, 10 ng/ml murine IL-3
# T2 sequence (P08922 whole entry, stated change not applied): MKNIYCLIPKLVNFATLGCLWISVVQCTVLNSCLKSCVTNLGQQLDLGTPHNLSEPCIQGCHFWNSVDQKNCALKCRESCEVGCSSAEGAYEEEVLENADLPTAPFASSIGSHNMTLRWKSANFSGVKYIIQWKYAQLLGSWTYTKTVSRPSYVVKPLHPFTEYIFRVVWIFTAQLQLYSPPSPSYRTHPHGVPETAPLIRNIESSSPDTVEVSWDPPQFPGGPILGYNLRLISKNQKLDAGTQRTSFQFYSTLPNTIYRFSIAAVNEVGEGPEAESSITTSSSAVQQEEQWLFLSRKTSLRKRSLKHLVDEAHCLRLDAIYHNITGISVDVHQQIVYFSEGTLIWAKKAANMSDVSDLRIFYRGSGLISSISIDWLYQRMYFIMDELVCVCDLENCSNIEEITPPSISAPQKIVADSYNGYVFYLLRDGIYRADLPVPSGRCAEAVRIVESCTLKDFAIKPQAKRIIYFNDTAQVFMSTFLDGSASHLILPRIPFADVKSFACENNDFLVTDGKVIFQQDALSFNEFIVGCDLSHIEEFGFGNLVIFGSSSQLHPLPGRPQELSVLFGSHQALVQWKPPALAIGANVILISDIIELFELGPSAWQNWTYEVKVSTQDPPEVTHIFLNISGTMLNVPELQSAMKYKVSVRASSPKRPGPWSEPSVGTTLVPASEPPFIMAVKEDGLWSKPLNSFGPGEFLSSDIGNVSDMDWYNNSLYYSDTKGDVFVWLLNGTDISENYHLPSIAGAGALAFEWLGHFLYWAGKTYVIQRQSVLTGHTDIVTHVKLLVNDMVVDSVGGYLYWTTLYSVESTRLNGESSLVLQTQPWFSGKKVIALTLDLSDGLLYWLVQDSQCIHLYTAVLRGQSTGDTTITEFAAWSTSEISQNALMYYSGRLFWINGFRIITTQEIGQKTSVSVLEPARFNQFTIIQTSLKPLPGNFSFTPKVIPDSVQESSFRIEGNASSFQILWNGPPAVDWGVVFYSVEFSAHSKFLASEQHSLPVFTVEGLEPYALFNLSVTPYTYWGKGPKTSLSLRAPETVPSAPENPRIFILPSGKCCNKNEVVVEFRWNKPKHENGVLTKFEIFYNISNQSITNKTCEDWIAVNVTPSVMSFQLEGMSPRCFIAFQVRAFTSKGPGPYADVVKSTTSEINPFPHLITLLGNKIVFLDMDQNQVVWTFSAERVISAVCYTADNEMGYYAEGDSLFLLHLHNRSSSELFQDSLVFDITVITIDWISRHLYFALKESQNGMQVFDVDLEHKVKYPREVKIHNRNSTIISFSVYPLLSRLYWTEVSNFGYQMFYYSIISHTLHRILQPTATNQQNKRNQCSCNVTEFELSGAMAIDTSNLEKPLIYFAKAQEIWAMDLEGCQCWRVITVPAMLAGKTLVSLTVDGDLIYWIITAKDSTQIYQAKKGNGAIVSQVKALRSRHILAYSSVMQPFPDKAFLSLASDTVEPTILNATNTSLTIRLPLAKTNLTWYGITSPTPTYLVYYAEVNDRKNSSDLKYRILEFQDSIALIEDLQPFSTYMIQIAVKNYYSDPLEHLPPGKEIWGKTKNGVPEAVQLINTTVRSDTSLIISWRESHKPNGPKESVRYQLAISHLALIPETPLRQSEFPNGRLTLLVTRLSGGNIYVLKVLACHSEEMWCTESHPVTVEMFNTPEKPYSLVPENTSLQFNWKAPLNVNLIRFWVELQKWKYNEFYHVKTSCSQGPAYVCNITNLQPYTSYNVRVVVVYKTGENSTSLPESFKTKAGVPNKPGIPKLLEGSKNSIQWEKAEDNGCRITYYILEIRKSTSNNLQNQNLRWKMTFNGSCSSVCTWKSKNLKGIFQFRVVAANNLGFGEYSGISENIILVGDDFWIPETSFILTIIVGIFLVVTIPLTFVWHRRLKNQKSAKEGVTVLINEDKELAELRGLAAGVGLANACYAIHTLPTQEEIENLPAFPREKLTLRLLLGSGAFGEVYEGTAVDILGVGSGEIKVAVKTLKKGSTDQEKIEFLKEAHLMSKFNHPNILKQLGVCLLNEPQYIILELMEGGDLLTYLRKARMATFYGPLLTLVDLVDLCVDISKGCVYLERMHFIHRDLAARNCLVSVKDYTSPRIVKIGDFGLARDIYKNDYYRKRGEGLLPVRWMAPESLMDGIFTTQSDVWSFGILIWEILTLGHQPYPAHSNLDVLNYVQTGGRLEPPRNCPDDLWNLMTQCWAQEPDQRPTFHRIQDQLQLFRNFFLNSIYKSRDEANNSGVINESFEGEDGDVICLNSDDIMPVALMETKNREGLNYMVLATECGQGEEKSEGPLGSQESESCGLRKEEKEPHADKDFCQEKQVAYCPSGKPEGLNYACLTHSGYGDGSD
# T1 sequence (P08922 28-2347): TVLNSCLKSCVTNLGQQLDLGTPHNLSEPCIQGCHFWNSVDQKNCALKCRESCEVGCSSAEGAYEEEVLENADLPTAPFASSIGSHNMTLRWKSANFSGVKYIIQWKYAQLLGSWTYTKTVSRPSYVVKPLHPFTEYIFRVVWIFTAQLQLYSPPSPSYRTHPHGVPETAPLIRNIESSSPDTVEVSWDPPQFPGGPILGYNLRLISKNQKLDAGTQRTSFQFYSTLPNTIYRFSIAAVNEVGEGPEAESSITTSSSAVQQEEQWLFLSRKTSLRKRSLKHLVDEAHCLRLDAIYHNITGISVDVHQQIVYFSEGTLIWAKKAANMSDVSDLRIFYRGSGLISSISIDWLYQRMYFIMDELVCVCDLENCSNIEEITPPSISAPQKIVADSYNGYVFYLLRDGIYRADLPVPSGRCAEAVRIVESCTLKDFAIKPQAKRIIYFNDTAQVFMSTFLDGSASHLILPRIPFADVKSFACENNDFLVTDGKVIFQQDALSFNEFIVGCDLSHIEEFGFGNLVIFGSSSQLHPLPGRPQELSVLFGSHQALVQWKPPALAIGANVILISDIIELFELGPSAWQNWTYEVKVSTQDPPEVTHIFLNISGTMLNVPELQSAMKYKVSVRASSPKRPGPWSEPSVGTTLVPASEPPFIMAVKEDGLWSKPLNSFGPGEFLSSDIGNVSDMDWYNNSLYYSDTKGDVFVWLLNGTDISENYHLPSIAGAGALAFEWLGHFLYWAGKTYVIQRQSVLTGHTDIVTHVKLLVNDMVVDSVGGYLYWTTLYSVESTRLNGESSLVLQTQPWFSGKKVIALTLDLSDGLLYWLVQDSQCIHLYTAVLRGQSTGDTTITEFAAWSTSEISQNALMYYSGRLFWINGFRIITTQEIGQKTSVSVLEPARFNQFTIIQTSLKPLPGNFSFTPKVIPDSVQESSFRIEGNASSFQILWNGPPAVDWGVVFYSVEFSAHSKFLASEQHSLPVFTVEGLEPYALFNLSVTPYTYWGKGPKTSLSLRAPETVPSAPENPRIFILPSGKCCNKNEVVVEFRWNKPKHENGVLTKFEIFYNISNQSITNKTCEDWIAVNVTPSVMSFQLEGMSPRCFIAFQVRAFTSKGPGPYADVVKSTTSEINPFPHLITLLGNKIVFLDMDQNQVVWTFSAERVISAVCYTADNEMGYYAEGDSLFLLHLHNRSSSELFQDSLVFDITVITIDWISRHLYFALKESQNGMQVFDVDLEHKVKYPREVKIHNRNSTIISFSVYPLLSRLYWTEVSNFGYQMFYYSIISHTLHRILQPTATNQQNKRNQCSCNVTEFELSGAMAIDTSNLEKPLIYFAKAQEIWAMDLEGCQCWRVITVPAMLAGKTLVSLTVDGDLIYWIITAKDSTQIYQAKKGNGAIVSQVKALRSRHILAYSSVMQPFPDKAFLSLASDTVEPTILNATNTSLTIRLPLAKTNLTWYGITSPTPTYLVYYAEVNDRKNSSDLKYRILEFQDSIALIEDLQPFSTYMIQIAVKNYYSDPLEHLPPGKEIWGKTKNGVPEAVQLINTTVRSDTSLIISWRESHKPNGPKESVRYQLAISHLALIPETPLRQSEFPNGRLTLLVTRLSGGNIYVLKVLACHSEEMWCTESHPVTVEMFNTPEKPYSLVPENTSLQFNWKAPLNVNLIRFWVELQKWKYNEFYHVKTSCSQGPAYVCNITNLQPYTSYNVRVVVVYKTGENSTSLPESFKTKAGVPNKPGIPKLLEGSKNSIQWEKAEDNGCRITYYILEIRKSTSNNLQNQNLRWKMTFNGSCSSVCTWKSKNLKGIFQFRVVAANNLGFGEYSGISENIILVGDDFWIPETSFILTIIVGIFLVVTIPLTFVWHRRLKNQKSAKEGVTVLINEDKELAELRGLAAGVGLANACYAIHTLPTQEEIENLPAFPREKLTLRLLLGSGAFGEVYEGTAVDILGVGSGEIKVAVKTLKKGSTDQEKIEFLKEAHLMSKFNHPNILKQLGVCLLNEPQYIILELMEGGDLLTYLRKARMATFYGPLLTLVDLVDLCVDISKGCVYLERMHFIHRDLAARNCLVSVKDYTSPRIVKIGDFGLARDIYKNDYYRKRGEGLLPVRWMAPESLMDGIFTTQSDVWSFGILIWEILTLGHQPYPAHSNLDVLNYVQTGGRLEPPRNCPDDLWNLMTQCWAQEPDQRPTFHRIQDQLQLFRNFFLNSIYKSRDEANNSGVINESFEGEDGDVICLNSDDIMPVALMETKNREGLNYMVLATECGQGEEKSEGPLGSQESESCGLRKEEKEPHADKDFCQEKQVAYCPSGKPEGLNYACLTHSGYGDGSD
# Ba/F3 cells containing Ros1 with a mutation at the gatekeeper residue (L2026M), sequence (P08922 whole entry L2026M, form open): as the sequence (P08922 whole entry, stated change not applied) above, with L2026M counted along it
SMILES,"IC50 ([1]; HCC78, 4 h) [nM]",CC50 [2] [nM],melting point [°C],EC50 [3] [nM],IC50 (Ros1 enzyme) [nM],BaF3-ROS1-IL3 pIC50 [4],Ba/F3 Ros1 L2026M (-IL-3) pIC50 [5],"IC50 [1, 6] [nM]","CC50 [2, 7] [nM]","EC50 ([3]; HCC78 cells, 4 days, MTT) [nM]"
CC(C)c1ccc(COc2ccc(-c3c(-c4ccncc4)nn4c3C(=O)NCC4)cc2C#N)cc1 [Compound 26],631,> 10000,235,794,398,6.6,6.5,,,
CC(C)c1ccc(COc2ccc(-c3c(-c4ccncn4)nn4c3C(=O)N(C(C)C)CC4)cc2)cc1 [Compound 160],,,166,,39.8,7.3,7.3,31.6,> 10000,100
CC(C)c1ccc(COc2ccc(-c3c(-c4ccncn4)nn4c3C(=O)N(CC3(C)COC3)CC4)cc2)cc1 [Compound 163],,,,,126,7.1,7.1,316,> 10000,126
CC(C)c1ncc(COc2ccc(-c3c(-c4ccncc4)nn4c3C(=O)NCC4)cc2)cn1 [Compound 103],3980,> 10000,235,2000,1260,6.0,,,,
CC(C)c1ccc(COc2ccc(-c3c(-c4ccncn4)nn4c3C(=O)N(C)CC4)cc2)cc1 [Compound 214],,,160,,31.6,7.4,7.3,31.6,> 10000,100
CC(C)c1ccc(COc2ccc(-c3c(-c4ccncn4)nn4c3C(=O)N(CCN)CC4)cc2)cc1 [Compound 165],,,154,,200,6.7,6.5,631,> 10000,1260
CC(C)c1ccc(COc2ccc(-c3c(-c4ccncc4F)nn4c3C(=O)NCC4)cc2)cc1 [Compound 151],20,> 10000,,63.1,31.6,7.4,7.1,,,
CC1Cn2nc(-c3ccncc3)c(-c3ccc(OCc4ccc(C5CC5)cc4)cc3)c2C(=O)N1 (stereo not shown) [Compound 189],39.8,> 10000,249,200,31.6,7.1,,,,
COc1cc(-c2c(-c3ccnc(N)c3)nn3c2C(=O)NCC3)ccc1OCc1ccc(C(C)C)cc1 [Compound 149],12.6,> 10000,179,< 31.6,7.94,7.6,7.4,,,
O=C1NCCn2nc(-c3ccncc3)c(-c3ccc(OCC#Cc4ccccc4)cc3)c21 [Compound 142],126,> 10000,245,398,126,6.9,6.4,,,
COc1cc(-c2c(-c3ccncc3)nn3c2C(=O)N(C)CC3)ccc1OCc1ccc(C(C)C)cc1 [Compound 33],12.6,> 10000,151,< 31.6,10,7.7,7.4,,,
CC(C)c1ccc(COc2ccc(-c3c(-c4ccncc4)nn4c3C(=O)NCC4)nc2)cc1 [Compound 12],501,> 10000,84,794,316,6.5,6.7,,,
CC(C)(O)c1ccc(COc2ccc(-c3c(-c4ccncc4)nn4c3C(=O)NCC4)cc2)cc1 [Compound 9],,,290,,631,6.4,6.2,2510,> 10000,2000
O=C1NCCCn2nc(-c3ccncc3)c(-c3ccc(OCc4ccc(C5CC5)cc4)cc3)c21 [Compound 228],,,235,,398,6.3,,501,> 10000,2000
CC(C)c1ccc(COc2ccc(-c3c(-c4ccncc4)nn4c3CNCC4)cc2)cc1 [Compound 173],,,194,,398,6.1,,316,> 10000,1580
CC(C)c1ccc(COc2ccc(-c3c(-c4ccncc4)nn4c3C(=O)N(C)CC4)cc2)cc1 [Compound 48],,,155,,31.6,7.1,,63.1,> 10000,398
O=C1NCCn2nc(-c3ccncc3)c(-c3ccc(OCc4ccc(C(F)(F)F)cc4)cc3)c21 [Compound 119],316,> 10000,280,398,200,7.2,6.9,,,
COc1cc(-c2c(-c3ccncc3)nn3c2C(=O)NCC3)cnc1OCc1ccc(C(C)C)cc1 [Compound 8],25.1,> 10000,135,39.8,6.31,7.9,7.8,,,
CC(C)c1ccc(COc2ccc(-c3c(-c4ccncc4)nn4c3CN(C)CC4)cc2)cc1 [Compound 185],,,120,,126,6.3,,158,> 10000,794
O=C1NCCn2nc(-c3ccncc3)c(-c3ccc(OCc4ccc(C5CC5)nc4)cc3)c21 [Compound 3],79.4,> 10000,276,794,79.4,7.3,7.0,,,
O=C1NC2(CC2)Cn2nc(-c3ccncc3)c(-c3ccc(OCc4ccc(C5CC5)cc4)cc3)c21 [Compound 5],50.1,> 10000,239,316,25.1,7.6,7.5,,,
COc1cc(-c2c(-c3ccnc(N)c3)nn3c2C(=O)N(C)CC3)ccc1OCc1ccc(C(C)C)cc1 [Compound 150],10,> 10000,,39.8,7.94,7.6,7.4,,,
